US9187471B2, “Pyrido [4,3-b] indole and pyrido [3,4-b] indole derivatives and methods of use” (Medivation Technologies, Inc., priority 2010, dated 2015)

Legend:
[1] = biological target: T1, human recombinant serotonin (5-Hydroxytryptamine) 5-HT2C receptor (Homo sapiens, UniProt P28335); assay: Serotonin 5-HT2C radioligand binding ([3H]Mesulergine); conditions: compound at 0.1 μM; read-out: Inhibition of ligand binding, Serotonin 5-HT2C (percent inhibition of specific binding)
T1 construct: expressed in transfected cells; host or cells: CHO-K1
T1 sequence (P28335 33-458): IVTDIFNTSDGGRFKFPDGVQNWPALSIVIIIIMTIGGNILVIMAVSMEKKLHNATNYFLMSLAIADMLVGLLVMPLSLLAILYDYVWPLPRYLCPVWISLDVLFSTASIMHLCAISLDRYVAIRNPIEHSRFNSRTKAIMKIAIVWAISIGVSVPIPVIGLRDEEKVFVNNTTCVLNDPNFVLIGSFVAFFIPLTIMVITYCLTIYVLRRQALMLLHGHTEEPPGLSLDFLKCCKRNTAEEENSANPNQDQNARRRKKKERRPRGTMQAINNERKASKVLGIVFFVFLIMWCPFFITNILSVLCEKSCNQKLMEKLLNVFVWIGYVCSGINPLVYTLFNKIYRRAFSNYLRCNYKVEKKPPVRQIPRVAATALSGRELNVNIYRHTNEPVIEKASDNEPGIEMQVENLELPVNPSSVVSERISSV
Protocol: Compounds of the invention were incubated with 1 nM [^3H]Mesulergine for 60 min at 25° C. Non-specific binding was estimated in the presence of 1 μM Mianserin. Receptor proteins were filtered and washed, the filters were then counted to determine [^3H]Mesulergine specifically bound.

[2] = biological target: T2, human recombinant histamine H1 receptor (Homo sapiens, UniProt P35367); assay: Histamine H1 radioligand binding ([3H]Pyrilamine); conditions: read-out: Histamine H1 Binding (1 μM), percent inhibition of specific binding; compound at 1 μM; 1.2 nM [3H]Pyrilamine
T2 construct: expressed in transfected cells; host or cells: CHO-K1
In short: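 Results expressed as percent inhibition of specific [3H]pyrilamine binding, counted on filters after washing. Receptor source: CHO-K1 cells expressing recombinant human H1, in modified Tris-HCl buffer (50 mM, pH 7.4; 2 mM MgCl2, 100 mM NaCl, 250 mM sucrose). 1 μM pyrilamine defined non-specific binding.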

[3] = biological target: T3, human recombinant serotonin (5-Hydroxytryptamine) 5-HT5A receptor (Homo sapiens, UniProt P47898); assay: Serotonin 5-HT5A radioligand binding ([3H]LSD); conditions: compound at 0.1 μM; read-out: Inhibition of ligand binding, Serotonin 5-HT5A (percent inhibition of specific binding)
T3 construct: expressed in transfected cells; host or cells: CHO-K1
Protocol: Compounds of the invention were incubated with 1.7 nM [^3H]Lysergic acid diethylamide (LSD) for 60 min at 37° C. […] Receptor proteins were filtered and washed, the filters were counted to determine [^3H]LSD specifically bound.

[4] = biological target: T4, human recombinant serotonin (5-Hydroxytryptamine) 5-HT6 receptor (Homo sapiens, UniProt P50406); assay: Serotonin 5-HT6 radioligand binding ([3H]LSD); conditions: compound at 0.1 μM; read-out: Inhibition of ligand binding, Serotonin 5-HT6 (percent inhibition of specific binding)
T4 construct: expressed in transfected cells; host or cells: HeLa
Excerpt: Receptor proteins were filtered and washed, the filters were then counted to determine [3H]LSD specifically bound.

[5] = biological target: T5, human recombinant dopamine D2L receptor (Homo sapiens, UniProt P14416); assay: Dopamine D2L radioligand binding ([3H]Spiperone); conditions: 0.16 nM [3H]Spiperone; for inhibition at 1 µM: read-out: Dopamine D2L (1 μM), percent inhibition of specific binding, compound at 1 μM
T5 construct: expressed in transfected cells; host or cells: CHO
Protocol: Non-specific binding was estimated in the presence of 10 μM Haloperidol. Receptor proteins were filtered and washed, the filters were then counted to determine [^3H]Spiperone specifically bound.

[6] = biological target: T6, human recombinant adrenergic α2C receptor (Homo sapiens, UniProt P18825); assay: Adrenergic α2C radioligand binding ([3H]MK-912); conditions: read-out: Adrenergic (0.1 μM) a2C, percent inhibition of specific binding; compound at 0.1 μM; 1 nM [3H]MK-912
T6 construct: expressed in transfected cells; host or cells: insect Sf9 cells
T6 sequence (P18825 1-462): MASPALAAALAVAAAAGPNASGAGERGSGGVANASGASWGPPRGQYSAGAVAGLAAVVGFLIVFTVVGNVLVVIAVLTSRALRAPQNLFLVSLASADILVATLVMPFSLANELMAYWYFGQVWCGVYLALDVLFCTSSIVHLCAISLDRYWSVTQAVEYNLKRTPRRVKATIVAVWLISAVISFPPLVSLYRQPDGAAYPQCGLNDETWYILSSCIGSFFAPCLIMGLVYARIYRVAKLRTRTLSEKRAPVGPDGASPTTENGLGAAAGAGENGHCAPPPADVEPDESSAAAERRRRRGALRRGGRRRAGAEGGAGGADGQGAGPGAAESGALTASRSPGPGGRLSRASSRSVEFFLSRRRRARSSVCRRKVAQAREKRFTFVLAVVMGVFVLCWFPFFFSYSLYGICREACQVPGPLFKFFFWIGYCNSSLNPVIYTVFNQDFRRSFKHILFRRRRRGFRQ
In short: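 Membranes from Sf9 cells expressing the human receptor, in 50 mM Tris-HCl pH 7.4 with 12.5 mM MgCl2 and 2 mM EDTA, incubated with compound and 1 nM [3H]MK-912 for 60 min at 25 °C. Non-specific binding defined with 10 μM WB-4101. Filter-bound radioactivity counted; percent inhibition of specific binding reported.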

[7] = biological target: T7, human recombinant serotonin (5-Hydroxytryptamine) 5-HT7 receptor (Homo sapiens, UniProt P34969); assay: Serotonin 5-HT7 radioligand binding ([3H]LSD); conditions: compound at 0.1 μM; read-out: Inhibition of ligand binding, Serotonin 5-HT7 (percent inhibition of specific binding)
T7 construct: expressed in transfected cells; host or cells: CHO
Protocol: Lysergic acid diethylamide (LSD) for 120 min. at 25° C. […] Receptor proteins were filtered and washed, the filters were then counted to determine [^3H]LSD specifically bound.

[8] = biological target: T8, human recombinant serotonin (5-Hydroxytryptamine) 5-HT2A receptor (Homo sapiens, UniProt P28223); assay: Serotonin 5-HT2A radioligand binding ([3H]Ketanserin); conditions: compound at 0.1 μM; read-out: Inhibition of ligand binding, Serotonin 5-HT2A (percent inhibition of specific binding)
T8 construct: expressed in transfected cells; host or cells: CHO-K1
Protocol: Compounds of the invention were incubated with 0.5 nM [^3H]Ketanserin for 60 min at 25° C. Non-specific binding was estimated in the presence of 1 μM Mianserin. Receptor proteins were filtered and washed, the filters were then counted to determine [^3H]Ketanserin specifically bound.

T5 sequence (P14416 whole entry): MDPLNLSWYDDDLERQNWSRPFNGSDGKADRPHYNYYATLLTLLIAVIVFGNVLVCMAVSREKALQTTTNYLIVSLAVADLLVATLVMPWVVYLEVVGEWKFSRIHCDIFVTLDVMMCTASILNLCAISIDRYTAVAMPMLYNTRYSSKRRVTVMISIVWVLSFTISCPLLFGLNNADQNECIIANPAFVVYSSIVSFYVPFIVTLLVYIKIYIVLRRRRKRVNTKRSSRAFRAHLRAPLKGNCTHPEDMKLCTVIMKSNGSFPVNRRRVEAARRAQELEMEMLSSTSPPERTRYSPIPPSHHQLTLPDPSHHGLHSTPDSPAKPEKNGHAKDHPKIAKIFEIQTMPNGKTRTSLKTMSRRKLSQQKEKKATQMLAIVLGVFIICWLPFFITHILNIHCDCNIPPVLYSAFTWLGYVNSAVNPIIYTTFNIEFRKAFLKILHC
T2 sequence (P35367 whole entry): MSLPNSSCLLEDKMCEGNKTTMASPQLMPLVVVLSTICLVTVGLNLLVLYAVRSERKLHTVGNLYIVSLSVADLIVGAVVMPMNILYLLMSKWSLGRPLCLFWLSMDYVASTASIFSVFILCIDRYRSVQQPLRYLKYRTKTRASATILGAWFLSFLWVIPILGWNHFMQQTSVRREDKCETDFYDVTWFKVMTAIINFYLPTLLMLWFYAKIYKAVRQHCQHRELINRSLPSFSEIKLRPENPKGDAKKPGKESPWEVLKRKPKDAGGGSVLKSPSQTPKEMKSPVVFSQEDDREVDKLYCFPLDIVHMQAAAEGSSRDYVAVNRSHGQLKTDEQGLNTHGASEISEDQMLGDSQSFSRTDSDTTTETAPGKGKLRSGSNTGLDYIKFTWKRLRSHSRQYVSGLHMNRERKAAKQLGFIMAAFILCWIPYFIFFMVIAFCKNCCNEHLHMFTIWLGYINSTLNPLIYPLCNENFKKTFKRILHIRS
T3 sequence (P47898 whole entry): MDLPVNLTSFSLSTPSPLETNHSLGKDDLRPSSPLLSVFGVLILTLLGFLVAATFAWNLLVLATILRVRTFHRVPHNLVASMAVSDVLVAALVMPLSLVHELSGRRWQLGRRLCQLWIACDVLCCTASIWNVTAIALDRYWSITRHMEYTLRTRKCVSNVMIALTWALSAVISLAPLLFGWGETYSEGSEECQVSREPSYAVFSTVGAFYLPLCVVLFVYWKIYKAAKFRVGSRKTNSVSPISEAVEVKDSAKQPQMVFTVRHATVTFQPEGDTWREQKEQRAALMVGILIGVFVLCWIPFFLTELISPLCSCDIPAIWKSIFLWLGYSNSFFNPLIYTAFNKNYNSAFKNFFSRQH
T8 sequence (P28223 whole entry): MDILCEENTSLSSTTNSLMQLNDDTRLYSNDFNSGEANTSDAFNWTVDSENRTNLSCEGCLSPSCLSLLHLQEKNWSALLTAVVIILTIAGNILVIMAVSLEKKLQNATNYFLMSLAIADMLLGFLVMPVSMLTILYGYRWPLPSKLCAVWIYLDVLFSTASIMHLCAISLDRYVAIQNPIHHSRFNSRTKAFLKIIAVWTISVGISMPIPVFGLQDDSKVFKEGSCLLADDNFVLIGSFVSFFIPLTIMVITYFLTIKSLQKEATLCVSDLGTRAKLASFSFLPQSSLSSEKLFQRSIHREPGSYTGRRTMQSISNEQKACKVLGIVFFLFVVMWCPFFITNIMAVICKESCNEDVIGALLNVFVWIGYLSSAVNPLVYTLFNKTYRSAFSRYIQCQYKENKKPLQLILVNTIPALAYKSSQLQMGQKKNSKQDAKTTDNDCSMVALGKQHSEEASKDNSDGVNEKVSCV
T7 sequence (P34969 whole entry): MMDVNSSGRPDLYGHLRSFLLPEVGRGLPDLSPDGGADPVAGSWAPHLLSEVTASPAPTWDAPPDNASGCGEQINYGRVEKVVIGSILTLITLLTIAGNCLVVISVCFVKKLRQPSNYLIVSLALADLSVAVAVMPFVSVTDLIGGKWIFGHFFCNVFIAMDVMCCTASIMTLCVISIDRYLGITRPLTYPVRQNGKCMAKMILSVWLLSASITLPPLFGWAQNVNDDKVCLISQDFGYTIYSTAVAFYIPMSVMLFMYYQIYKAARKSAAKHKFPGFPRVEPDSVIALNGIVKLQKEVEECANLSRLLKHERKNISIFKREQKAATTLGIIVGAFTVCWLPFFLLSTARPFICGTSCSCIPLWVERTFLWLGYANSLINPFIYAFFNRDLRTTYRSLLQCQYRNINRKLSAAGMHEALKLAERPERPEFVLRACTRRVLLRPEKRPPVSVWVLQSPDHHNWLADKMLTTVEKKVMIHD
T4 sequence (P50406 whole entry): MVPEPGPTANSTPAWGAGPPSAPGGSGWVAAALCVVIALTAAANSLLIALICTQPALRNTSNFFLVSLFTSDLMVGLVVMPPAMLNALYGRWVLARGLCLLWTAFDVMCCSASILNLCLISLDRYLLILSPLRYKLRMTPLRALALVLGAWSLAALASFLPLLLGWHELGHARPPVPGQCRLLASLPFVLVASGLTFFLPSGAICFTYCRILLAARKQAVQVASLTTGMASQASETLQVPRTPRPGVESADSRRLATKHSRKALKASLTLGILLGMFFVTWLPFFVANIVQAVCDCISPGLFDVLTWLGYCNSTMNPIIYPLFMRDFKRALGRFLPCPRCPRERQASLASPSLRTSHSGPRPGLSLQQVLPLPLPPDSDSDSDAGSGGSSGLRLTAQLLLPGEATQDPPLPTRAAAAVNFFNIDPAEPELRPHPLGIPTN

Row | SMILES | inhibition at 0.1 µM [1] | inhibition at 1 µM [2] | inhibition at 0.1 µM [3] | inhibition at 0.1 µM [4] | inhibition at 1 µM [5] | inhibition at 0.1 µM [6] | inhibition at 0.1 µM [7] | inhibition at 0.1 µM [8] | inhibition at 0.1 µM ([5]; read-out: Dopamine D2L (0.1 μM), percent inhibition of specific binding, compound at 0.1 μM)
1 | Cc1ccc2c(c1)c1c(n2-c2cscc2-c2cnc(N(C)C)nc2)CCN(C)C1 [Compound 40] | 35% | 15% | 76% | 19% | 7% | -17% | 49% | 31% | –
2 | Cc1ccc2c(c1)c1c(n2-c2cccc(-c3ccc(F)nc3)c2)CCN(C)C1 [Compound 44, 5-(3-(6-fluoropyridin-3-yl)phenyl)-2,8-dimethyl-2,3,4,5-tetrahydro-1H-pyrido[4,3-b]indole] | 83% | 41% | 61% | 21% | 23% | 10% | 40% | 103% | –
3 | Cc1ccc2c(c1)c1c(n2-c2cccc(-c3ccc(S(N)(=O)=O)cc3)c2)CCN(C)C1 [Compound No. 158, 3′-(2,8-dimethyl-3,4-dihydro-1H-pyrido[4,3-b]indol-5(2H)-yl)biphenyl-4-sulfonamide] | 47% | 1% | 62% | 14% | – | 0% | 26% | 91% | 1%
4 | Cc1ccc2c(c1)c1c(n2-c2ccc(-c3ccc(F)nc3)cn2)CCN(C)C1 [Compound No. 142, 5-(6′-fluoro-3,3′-bipyridin-6-yl)-2,8-dimethyl-2,3,4,5-tetrahydro-1H-pyrido[4,3-b]indole] | 98% | 7% | 23% | -12% | 13% | 5% | 22% | 103% | –
5 | Cc1ccc2c(c1)c1c(n2-c2ccc(-c3cccc4ccccc34)cn2)CCN(C)C1 [Compound No. 141, 2,8-dimethyl-5-(5-(naphthalen-1-yl)pyridin-2-yl)-2,3,4,5-tetrahydro-1H-pyrido[4,3-b]indole] | 92% | 11% | 87% | 0% | 15% | 16% | 33% | 61% | –
6 | Cc1ccc2c(c1)c1c(n2-c2ccc(-c3ccc4c(ccn4C)c3)cn2)CCN(C)C1 [Compound No. 136, 2,8-dimethyl-5-(5-(1-methyl-1H-indol-5-yl)pyridin-2-yl)-2,3,4,5-tetrahydro-1H-pyrido[4,3-b]indole] | 101% | 5% | 50% | 10% | 15% | 24% | 26% | 98% | –
7 | COc1ccc(-c2cscc2-n2c3c(c4cc(C)ccc42)CN(C)CC3)cc1 [Compound 37] | 81% | 6% | 94% | 24% | 18% | 72% | 100% | 59% | –
8 | Cc1ccc2c(c1)c1c(n2-c2cscc2-c2ccc(S(C)(=O)=O)cc2)CCN(C)C1 [Compound No. 76] | 24% | 19% | 90% | 14% | 11% | 79% | 85% | 30% | –
9 | Cc1ccc2c(c1)c1c(n2-c2cscc2-c2sccc2C)CCN(C)C1 [Compound 39] | 93% | 58% | 83% | 65% | 54% | 50% | 97% | 84% | –
10 | Cc1ccc2c(c1)c1c(n2-c2ccc(-c3cnc(N(C)C)nc3)cn2)CCN(C)C1 [Compound No. 138, 5-(6-(2,8-dimethyl-3,4-dihydro-1H-pyrido[4,3-b]indol-5(2H)-yl)pyridin-3-yl)-N,N-dimethylpyrimidin-2-amine] | 86% | 7% | 13% | -6% | -2% | -2% | 6% | 83% | –
11 | Cc1ccc2c(c1)c1c(n2-c2cscc2-c2ccc3c(ccn3C)c2)CCN(C)C1 [Compound 33] | 49% | -7% | 93% | 60% | 19% | 87% | 94% | 39% | –
12 | Cc1cc(C)c2c(c1)c1c(n2-c2ccc3ncccc3c2)CCN(C)C1 [Compound 48] | 47% | 4% | 10% | 20% | 41% | -7% | 23% | 13% | –
13 | Cc1ccc2c(c1)c1c(n2-c2ccc(-c3sccc3C)cn2)CCN(C)C1 [Compound No. 148, 2,8-dimethyl-5-(5-(3-methylthiophen-2-yl)pyridin-2-yl)-2,3,4,5-tetrahydro-1H-pyrido[4,3-b]indole] | 88% | 5% | 50% | 5% | 17% | 4% | 35% | 95% | –
